Read-outs that look alike come from different tables or passages of the source.
Experiments:
[1] = test system: MDA-MB-231; assay: Cell proliferation inhibition assay (MTT); type: cell-based, human
Procedure: The remaining cell lines were cultured in DMEM complete medium containing 10% fetal bovine serum (MV4-11 cells 20%), 100 U/ml penicillin, 100 μg/mL streptomycin at 5% CO2, and 37° C.
The cells were seeded in 96-well plates with 200 μL of cell suspension per well and incubated overnight in a cell culture medium with a cell concentration of 1˜2×10^4 cells/mL. The next day, the supernatant was discarded (the suspension cell was centrifuged before it) and the cells were treated with gradient concentrations of the test compound, respectively. At the same time, the drug-free negative control group and the equal volume of solvent control group, DMSO concentration of 0.1%, each dose group set up three wells, 37° C., 5% CO2 conditions. After 72 hours, add 20 μL of MTT reagent at a concentration of 5 mg/mL per well. After incubation for 2-4 h, the supernatant was discarded and 150 μL of DMSO was added to each well. […] Determine the absorbance (A) value (λ=570 nm, A value is proportional to the number of living cells), whichever is the average. […] The experiment was repeated at least 3 times. Experimental data were expressed as mean, data statistics using t test, P<0.05 for the difference was statistically significant. The inhibitory effects of the following compounds on cell proliferation were expressed as IC50 or inhibition rates.

[2] = biological target: PKBβ(h) (Homo sapiens (Human), UniProt P31751); assay: Kinase inhibition assay (KinaseProfiler, 33P-ATP); type: biochemical; conditions: read-out: The percentage of the remaining active protein
[3] = biological target: Btk (Homo sapiens (Human), UniProt Q06187); assay: Kinase inhibition assay (KinaseProfiler, 33P-ATP); type: biochemical; conditions: for remaining activity at 10 µM: BTK(h), read-out: The percentage of the remaining active protein
[4] = biological target: PKBα(h) (Homo sapiens (Human), UniProt P31749); assay: Kinase inhibition assay (KinaseProfiler, 33P-ATP); type: biochemical; conditions: read-out: The percentage of the remaining active protein
[5] = biological target: FAK(h) (Homo sapiens (Human), UniProt Q05397); assay: Kinase inhibition assay (KinaseProfiler, 33P-ATP); type: biochemical; conditions: read-out: The percentage of the remaining active protein
[6] = biological target: Bmx (Homo sapiens (Human), UniProt P51813); assay: Kinase inhibition assay (KinaseProfiler, 33P-ATP); conditions: for remaining activity at 10 µM: read-out: The percentage of the remaining active protein
[7] = biological target: c-RAF (Homo sapiens (Human), UniProt P04049); assay: Kinase inhibition assay (KinaseProfiler, 33P-ATP); type: biochemical; conditions: c-RAF(h), read-out: The percentage of the remaining active protein
[8] = biological target: Lyn (Homo sapiens (Human), UniProt P07948); assay: Kinase inhibition assay (KinaseProfiler, 33P-ATP); type: biochemical; conditions: for remaining activity at 10 µM: Lyn(h), read-out: The percentage of the remaining active protein
[9] = biological target: ErbB2 (Homo sapiens (Human), UniProt P04626); assay: Kinase inhibition assay (KinaseProfiler, 33P-ATP); type: biochemical; conditions: for remaining activity at 10 µM: ErbB2(h), read-out: The percentage of the remaining active protein
[10] = biological target: EphB2 (Homo sapiens (Human), UniProt P29323); assay: Kinase inhibition assay (KinaseProfiler, 33P-ATP); type: biochemical; conditions: for remaining activity at 10 µM: EphB2(h), read-out: The percentage of the remaining active protein
[11] = biological target: CDK7 (Homo sapiens (Human), UniProt P50613); assay: Kinase inhibition assay (KinaseProfiler, 33P-ATP); type: biochemical; conditions: read-out: The percentage of the remaining active protein
[12] = biological target: B-Raf (Homo sapiens (Human), UniProt P15056); assay: Kinase inhibition assay (KinaseProfiler, 33P-ATP); conditions: for remaining activity at 10 µM: read-out: The percentage of the remaining active protein
[13] = test system: HT29; assay: Cell proliferation inhibition assay (MTT); type: cell-based; conditions: Homo sapiens, read-out: Proliferation inhibitory activity IC50
Procedure: (§1) The cells were seeded in 96-well plates with 200 μL of cell suspension per well and incubated overnight in a cell culture medium with a cell concentration of 1 2×10^4 cells/mL. The next day, the supernatant was discarded (the suspension cell was centrifuged before it) and the cells were treated with gradient concentrations of the test compound, respectively. […] After 72 hours, add 20 μL of MTT reagent at a concentration of 5 mg/mL per well. After incubation for 2-4 h, the supernatant was discarded and 150 μL of DMSO was added to each well. […] Relative cell proliferation inhibition rate=([MUT]-[MUT])×100%/[MUT]. The experiment was repeated at least 3 times. Experimental data were expressed as mean, data statistics using t test, P<0.05 for the difference was statistically significant.

[14] = test system: breast cancer cell line MDA-MB-231; type: in vivo
Procedure: When the tumors grew to volumes of 200 mm^3, all the mice were randomized into groups (6 mice for each group) and dosed with indicated compounds.
Observation indexes: mouse body weight and the tumor size were measured once every three days, the tumor volume is calculated (length×width^2×0.5).

[15] = biological target: Met(h) (Homo sapiens (Human), UniProt P08581); assay: Kinase inhibition assay (KinaseProfiler, 33P-ATP); type: biochemical; conditions: read-out: The percentage of the remaining active protein
[16] = biological target: TrkA (Homo sapiens (Human), UniProt P04629); assay: Kinase inhibition assay (KinaseProfiler, 33P-ATP); type: biochemical; conditions: TrkA(h), read-out: The percentage of the remaining active protein
[17] = biological target: Fer(h) (Homo sapiens (Human), UniProt P16591); assay: Kinase inhibition assay (KinaseProfiler, 33P-ATP); type: biochemical; conditions: read-out: The percentage of the remaining active protein
[18] = biological target: DDR2 (Homo sapiens (Human), UniProt Q16832); assay: Kinase inhibition assay (KinaseProfiler, 33P-ATP); type: biochemical; conditions: for IC50: DDR2, ATP at Km
[19] = biological target: c-Src(1-530) (Homo sapiens (Human), UniProt P12931); assay: Kinase inhibition assay (KinaseProfiler, 33P-ATP)
[20] = test system: MDA-MB-435; assay: Cell proliferation inhibition assay (MTT); type: cell-based, human
[21] = biological target: PDGFRα (Homo sapiens (Human), UniProt P16234); assay: Kinase inhibition assay (KinaseProfiler, 33P-ATP); type: biochemical; conditions: for remaining activity at 10 µM: PDGFRα(h), read-out: The percentage of the remaining active protein
[22] = biological target: CHK1(h) (Homo sapiens (Human), UniProt O14757); assay: Kinase inhibition assay (KinaseProfiler, 33P-ATP); type: biochemical; conditions: read-out: The percentage of the remaining active protein
[23] = test system: BT474; assay: Cell proliferation inhibition assay (MTT); type: cell-based; conditions: Homo sapiens, read-out: Proliferation inhibitory activity IC50
Procedure: as §1

[24] = biological target: Yes (Homo sapiens (Human), UniProt P07947); assay: Kinase inhibition assay (KinaseProfiler, 33P-ATP); type: biochemical; conditions: for remaining activity at 10 µM: Yes(h), read-out: The percentage of the remaining active protein; for IC50: Yes, ATP at Km
[25] = test system: A549; assay: Cell proliferation inhibition assay (MTT); type: cell-based; conditions: Homo sapiens, read-out: Proliferation inhibitory activity IC50
Procedure: as §1

[26] = biological target: TBK1(h) (Homo sapiens (Human), UniProt Q9UHD2); assay: Kinase inhibition assay (KinaseProfiler, 33P-ATP); type: biochemical; conditions: read-out: The percentage of the remaining active protein
[27] = biological target: Axl (Homo sapiens (Human), UniProt P30530); assay: Kinase inhibition assay (KinaseProfiler, 33P-ATP); type: biochemical; conditions: for remaining activity at 10 µM: Axl(h), read-out: The percentage of the remaining active protein
[28] = biological target: JNK1α1(h) (Homo sapiens (Human), UniProt P45983); assay: Kinase inhibition assay (KinaseProfiler, 33P-ATP); type: biochemical; conditions: read-out: The percentage of the remaining active protein
[29] = biological target: IKKβ (Homo sapiens (Human), UniProt O14920); assay: Kinase inhibition assay (KinaseProfiler, 33P-ATP); type: biochemical

Sequence of DDR2 (Q16832 22-855): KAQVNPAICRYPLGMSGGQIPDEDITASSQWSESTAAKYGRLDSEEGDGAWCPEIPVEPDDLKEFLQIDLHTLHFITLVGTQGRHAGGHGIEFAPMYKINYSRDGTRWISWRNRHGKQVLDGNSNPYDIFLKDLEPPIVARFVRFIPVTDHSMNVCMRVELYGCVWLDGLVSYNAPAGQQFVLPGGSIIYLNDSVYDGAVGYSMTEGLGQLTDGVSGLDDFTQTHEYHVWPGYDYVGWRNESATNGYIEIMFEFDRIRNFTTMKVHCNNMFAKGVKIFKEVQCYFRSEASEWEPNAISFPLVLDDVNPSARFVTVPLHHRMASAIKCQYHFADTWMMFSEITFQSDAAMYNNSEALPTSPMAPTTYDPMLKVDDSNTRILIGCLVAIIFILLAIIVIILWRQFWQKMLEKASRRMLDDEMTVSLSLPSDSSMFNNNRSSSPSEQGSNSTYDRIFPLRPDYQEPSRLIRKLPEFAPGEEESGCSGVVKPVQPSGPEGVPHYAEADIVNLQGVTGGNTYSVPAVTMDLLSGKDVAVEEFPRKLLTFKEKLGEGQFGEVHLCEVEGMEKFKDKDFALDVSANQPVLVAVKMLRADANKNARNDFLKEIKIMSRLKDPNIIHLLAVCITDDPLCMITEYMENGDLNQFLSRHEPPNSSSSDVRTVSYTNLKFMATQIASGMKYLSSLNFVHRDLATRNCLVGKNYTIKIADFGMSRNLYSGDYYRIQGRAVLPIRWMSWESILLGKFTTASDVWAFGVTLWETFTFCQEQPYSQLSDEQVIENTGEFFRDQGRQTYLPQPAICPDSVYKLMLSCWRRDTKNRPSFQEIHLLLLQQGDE
Sequence of PDGFRα (P16234 24-1089): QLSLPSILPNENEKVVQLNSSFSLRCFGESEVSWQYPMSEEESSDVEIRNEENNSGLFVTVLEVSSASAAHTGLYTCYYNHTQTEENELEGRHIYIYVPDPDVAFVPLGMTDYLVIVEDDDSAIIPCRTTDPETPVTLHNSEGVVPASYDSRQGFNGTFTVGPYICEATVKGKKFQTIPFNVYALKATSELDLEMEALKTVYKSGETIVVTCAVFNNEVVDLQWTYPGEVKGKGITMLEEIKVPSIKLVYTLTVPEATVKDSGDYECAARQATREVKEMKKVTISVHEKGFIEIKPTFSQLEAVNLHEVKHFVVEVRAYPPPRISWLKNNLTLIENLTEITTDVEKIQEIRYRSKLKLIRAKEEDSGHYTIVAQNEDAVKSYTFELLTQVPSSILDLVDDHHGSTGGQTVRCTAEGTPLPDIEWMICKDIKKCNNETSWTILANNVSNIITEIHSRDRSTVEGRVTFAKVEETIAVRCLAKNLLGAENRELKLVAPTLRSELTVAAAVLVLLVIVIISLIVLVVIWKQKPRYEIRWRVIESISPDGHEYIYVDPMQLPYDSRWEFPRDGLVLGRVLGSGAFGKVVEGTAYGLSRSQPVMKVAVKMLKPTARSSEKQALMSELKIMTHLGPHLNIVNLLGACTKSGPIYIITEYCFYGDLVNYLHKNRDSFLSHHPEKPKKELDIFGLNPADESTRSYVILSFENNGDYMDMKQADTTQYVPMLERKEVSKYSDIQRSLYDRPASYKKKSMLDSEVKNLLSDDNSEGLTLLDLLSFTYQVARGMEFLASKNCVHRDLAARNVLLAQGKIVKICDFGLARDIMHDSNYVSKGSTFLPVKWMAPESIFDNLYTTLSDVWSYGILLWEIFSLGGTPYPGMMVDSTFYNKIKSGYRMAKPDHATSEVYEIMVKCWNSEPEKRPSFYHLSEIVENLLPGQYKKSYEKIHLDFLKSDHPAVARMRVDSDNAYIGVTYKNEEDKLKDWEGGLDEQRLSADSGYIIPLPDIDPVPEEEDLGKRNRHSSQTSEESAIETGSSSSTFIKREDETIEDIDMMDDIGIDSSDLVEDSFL
Sequence of EphB2 (P29323 19-1055): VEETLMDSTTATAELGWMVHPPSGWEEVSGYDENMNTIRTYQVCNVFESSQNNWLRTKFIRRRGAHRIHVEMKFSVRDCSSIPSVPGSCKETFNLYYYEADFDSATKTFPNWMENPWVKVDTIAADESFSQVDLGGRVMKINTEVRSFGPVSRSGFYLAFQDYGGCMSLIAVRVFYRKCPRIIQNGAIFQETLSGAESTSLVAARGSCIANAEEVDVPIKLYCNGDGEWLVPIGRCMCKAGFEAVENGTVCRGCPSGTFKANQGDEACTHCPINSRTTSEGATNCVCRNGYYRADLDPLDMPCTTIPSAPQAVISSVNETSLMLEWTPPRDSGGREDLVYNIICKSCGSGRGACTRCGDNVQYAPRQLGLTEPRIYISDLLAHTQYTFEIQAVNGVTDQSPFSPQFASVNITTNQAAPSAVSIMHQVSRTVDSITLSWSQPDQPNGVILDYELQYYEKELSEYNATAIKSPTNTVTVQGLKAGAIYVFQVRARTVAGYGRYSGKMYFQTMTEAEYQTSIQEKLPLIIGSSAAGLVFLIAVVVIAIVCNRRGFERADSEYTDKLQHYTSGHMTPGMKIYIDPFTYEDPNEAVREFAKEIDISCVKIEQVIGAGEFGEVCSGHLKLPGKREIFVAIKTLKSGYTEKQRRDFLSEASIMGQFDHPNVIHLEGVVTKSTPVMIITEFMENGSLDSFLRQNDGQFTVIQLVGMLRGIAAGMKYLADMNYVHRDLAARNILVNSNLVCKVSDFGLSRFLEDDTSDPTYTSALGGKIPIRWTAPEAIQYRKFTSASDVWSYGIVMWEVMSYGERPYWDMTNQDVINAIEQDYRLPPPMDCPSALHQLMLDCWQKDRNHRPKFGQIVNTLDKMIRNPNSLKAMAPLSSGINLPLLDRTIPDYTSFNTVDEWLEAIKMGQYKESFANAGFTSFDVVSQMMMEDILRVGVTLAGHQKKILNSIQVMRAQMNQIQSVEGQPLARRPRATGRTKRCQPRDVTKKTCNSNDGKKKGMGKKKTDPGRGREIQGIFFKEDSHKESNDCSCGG
Sequence of Axl (P30530 26-894): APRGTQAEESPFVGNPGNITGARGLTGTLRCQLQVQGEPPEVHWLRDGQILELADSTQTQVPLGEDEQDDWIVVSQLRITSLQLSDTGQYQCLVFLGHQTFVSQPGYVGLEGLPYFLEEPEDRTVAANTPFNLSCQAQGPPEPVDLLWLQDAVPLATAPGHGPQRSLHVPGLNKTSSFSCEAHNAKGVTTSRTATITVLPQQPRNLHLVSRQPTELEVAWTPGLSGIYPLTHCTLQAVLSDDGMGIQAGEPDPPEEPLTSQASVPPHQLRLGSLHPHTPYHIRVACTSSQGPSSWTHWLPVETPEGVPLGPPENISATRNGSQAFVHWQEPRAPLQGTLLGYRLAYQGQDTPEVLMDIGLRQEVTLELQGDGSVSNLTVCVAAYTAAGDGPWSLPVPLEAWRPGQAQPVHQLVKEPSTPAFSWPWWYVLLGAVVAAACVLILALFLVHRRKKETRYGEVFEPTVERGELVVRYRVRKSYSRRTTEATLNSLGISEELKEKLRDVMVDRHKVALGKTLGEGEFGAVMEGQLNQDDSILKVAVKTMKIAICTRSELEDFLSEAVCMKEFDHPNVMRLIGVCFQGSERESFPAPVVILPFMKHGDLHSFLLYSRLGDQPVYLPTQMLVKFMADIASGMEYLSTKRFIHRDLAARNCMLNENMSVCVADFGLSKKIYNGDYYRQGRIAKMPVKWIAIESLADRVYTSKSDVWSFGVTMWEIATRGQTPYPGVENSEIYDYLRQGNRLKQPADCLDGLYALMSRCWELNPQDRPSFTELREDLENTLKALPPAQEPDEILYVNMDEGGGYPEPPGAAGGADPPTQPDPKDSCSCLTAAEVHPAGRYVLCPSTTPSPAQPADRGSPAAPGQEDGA
Sequence of ErbB2 (P04626 23-1255): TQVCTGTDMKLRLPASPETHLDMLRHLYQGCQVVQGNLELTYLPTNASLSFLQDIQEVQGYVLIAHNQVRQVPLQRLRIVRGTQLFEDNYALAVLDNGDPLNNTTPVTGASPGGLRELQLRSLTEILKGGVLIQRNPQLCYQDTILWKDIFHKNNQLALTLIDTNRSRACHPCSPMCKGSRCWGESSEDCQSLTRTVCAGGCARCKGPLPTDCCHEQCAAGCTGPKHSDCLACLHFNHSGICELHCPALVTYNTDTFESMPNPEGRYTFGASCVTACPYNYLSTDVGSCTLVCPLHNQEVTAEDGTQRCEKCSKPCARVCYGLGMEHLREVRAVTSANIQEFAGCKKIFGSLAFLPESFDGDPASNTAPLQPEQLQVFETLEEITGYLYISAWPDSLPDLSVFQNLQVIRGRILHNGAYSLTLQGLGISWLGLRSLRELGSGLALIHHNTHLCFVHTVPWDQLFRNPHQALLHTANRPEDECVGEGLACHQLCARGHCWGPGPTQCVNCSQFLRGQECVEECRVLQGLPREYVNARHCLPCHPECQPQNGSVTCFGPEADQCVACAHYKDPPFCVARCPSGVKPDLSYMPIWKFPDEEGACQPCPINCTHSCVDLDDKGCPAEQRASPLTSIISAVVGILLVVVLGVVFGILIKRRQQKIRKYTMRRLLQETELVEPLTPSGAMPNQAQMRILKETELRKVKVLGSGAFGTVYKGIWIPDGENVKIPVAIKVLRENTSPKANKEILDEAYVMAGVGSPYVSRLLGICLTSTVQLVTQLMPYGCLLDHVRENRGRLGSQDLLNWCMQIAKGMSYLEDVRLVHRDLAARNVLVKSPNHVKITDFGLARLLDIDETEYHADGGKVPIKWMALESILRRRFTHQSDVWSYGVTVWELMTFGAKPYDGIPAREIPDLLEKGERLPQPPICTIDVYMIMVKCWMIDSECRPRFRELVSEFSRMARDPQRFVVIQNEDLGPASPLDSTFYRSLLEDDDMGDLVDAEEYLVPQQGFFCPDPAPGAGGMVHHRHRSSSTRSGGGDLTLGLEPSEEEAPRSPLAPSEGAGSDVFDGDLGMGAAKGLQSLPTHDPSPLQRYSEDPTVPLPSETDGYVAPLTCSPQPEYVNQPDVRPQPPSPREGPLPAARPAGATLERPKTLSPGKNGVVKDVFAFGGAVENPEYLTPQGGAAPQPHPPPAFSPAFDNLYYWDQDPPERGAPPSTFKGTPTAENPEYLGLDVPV

## CCn1nc(C#Cc2cc(C(=O)Nc3ccc(CN4CCN(C)CC4)c(C(F)(F)F)c3)ccc2C)c2c(N)ncnc21 [Compound 3]
[1]; Homo sapiens, MDA-MB-231, 72 h, read-out: Proliferation inhibitory activity IC50
  IC50: 11.3 nM
[1]; read-out: Proliferative inhibitory activity MDA-MB-231 (IC50 class)
  IC50: < 100 nM
[2]; compound at 10 μM
  remaining activity at 10 µM: 52%
[3]; compound at 10 μM
  remaining activity at 10 µM: -3%
[3]; Btk, ATP at Km
  IC50: 67 nM
[4]; compound at 10 μM
  remaining activity at 10 µM: 73%
[5]; compound at 10 μM
  remaining activity at 10 µM: 43%
[6]
  IC50: 6 nM
  remaining activity at 10 µM: 0%
[7]; compound at 10 μM
  remaining activity at 10 µM: 5%
[8]; compound at 10 μM
  remaining activity at 10 µM: 0%
[9]; compound at 10 μM
  remaining activity at 10 µM: 3%
[10]; compound at 10 μM
  remaining activity at 10 µM: 0%
[11]; CDK7, compound at 10 μM
  remaining activity at 10 µM: 70%
[12]; B-Raf, ATP at Km
  IC50: 92 nM
[12]
  remaining activity at 10 µM: 5%
[13]; HT-29, 72 h
  IC50: 166 nM
[14]; mouse, in vivo
  inhibitory effect compared to positive control: better than the positive control (paclitaxel)
  tumor growth inhibition: significantly inhibited
[15]; compound at 10 μM
  remaining activity at 10 µM: 24%
[16]; compound at 10 μM
  remaining activity at 10 µM: -2%
[17]; compound at 10 μM
  remaining activity at 10 µM: 23%
[18]
  IC50: 128 nM
[19]; c-Src(1-530), ATP at Km
  IC50: < 1 nM
[20]; Homo sapiens, MDA-MB-435, 72 h, read-out: Proliferation inhibitory activity IC50
  IC50: 8.65 nM
[20]; read-out: Proliferative inhibitory activity MDA-MB-435 (IC50 class)
  IC50: < 100 nM
[21]; compound at 10 μM
  remaining activity at 10 µM: 5%
[21]; PDGFRα, ATP at Km
  IC50: 890 nM
[22]; compound at 10 μM
  remaining activity at 10 µM: 91%
[23]; BT-474, 72 h
  IC50: > 10000 nM
[24]; compound at 10 μM
  remaining activity at 10 µM: 0%
[24]
  IC50: < 1 nM
[25]; A549, 72 h
  IC50: 199 nM
[26]; compound at 10 μM
  remaining activity at 10 µM: 75%
[27]; compound at 10 μM
  remaining activity at 10 µM: -4%
[27]; Axl, ATP at Km
  IC50: 578 nM
[28]; compound at 10 μM
  remaining activity at 10 µM: 66%
[29]; IKKβ, ATP at Km
  IC50: 164 nM

## Cc1ccc(NC(=O)c2ccc(C)c(C(F)(F)F)c2)cc1C#Cc1nn([C@H]2CC[C@H](O)CC2)c2ncnc(N)c12 [Compound 93]
[1]; Homo sapiens, MDA-MB-231, MTT, 72 hours, read-out: Proliferation inhibitory activity IC50
  IC50: 30 nM
[1]; Homo sapiens, MDA-MB-231, MTT, 72 hours, read-out: Proliferative inhibitory activity MDA-MB-231 (IC50 class)
  IC50: < 100 nM
[2]; 10 μM
  remaining activity at 10 µM: 127%
[3]; 10 μM
  remaining activity at 10 µM: 10%
[4]; 10 μM
  remaining activity at 10 µM: 101%
[5]; 10 μM
  remaining activity at 10 µM: 45%
[6]; Bmx, ATP at Km
  IC50: 21 nM
[6]
  remaining activity at 10 µM: -1%
[7]; 10 μM
  remaining activity at 10 µM: 24%
[8]; 10 μM
  remaining activity at 10 µM: 0%
[8]; Lyn, ATP at Km
  IC50: 4 nM
[9]; 10 μM
  remaining activity at 10 µM: 4%
[9]; ErbB2, ATP at Km
  IC50: 165 nM
[10]; 10 μM
  remaining activity at 10 µM: -1%
[10]; EphB2, ATP at Km
  IC50: 33 nM
[11]; CDK7/cyclinH/MAT1(h), 10 μM
  remaining activity at 10 µM: 103%
[12]
  remaining activity at 10 µM: 7%
[13]; HT-29, HT29, MTT, 72 hours
  IC50: 230 nM
[14]; MDA-MB-231 subcutaneous tumor, nude mice, 20 mg/kg per day, oral
  tumor growth inhibition: significantly inhibit tumor growth
[14]; MDA-MB-231 subcutaneous tumor, nude mice, vs paclitaxel 10 mg/kg per week tail vein, dasatinib 40 mg/kg daily oral
  inhibitory effect compared to positive control: superior inhibitory effect compared to the positive control (paclitaxel)
[15]; 10 μM
  remaining activity at 10 µM: 133%
[16]; 10 μM
  remaining activity at 10 µM: 72%
[17]; 10 μM
  remaining activity at 10 µM: 67%
[18]; DDR2(h), 10 μM, read-out: The percentage of the remaining active protein
  remaining activity at 10 µM: 16%
[18]
  IC50: 65 nM
[19]; read-out: The percentage of the remaining active protein
  remaining activity at 10 µM: 0%
[20]; Homo sapiens, MDA-MB-435, MTT, 72 hours, read-out: Proliferative inhibitory activity MDA-MB-435 (IC50 class)
  IC50: < 100 nM
[21]; 10 μM
  remaining activity at 10 µM: 60%
[22]; 10 μM
  remaining activity at 10 µM: 114%
[23]; BT-474, BT474, MTT, 72 hours
  IC50: > 10000 nM
[24]; 10 μM
  remaining activity at 10 µM: 0%
[24]
  IC50: 1 nM
[25]; A549, MTT, 72 hours
  IC50: > 10000 nM
[26]; 10 μM
  remaining activity at 10 µM: 104%
[27]; 10 μM
  remaining activity at 10 µM: 56%
[28]; 10 μM
  remaining activity at 10 µM: 35%
[29]; IKKβ(h), 10 μM, read-out: The percentage of the remaining active protein
  remaining activity at 10 µM: 33%

Reference: US10266537B2, “3-acetylenyl-pyrazole-pyrimidine derivative, and preparation method therefor and uses thereof” (Si Chuan University, priority 2015, dated 2019)
